ChEMBL document CHEMBL4354847, “Congenetic Hybrids Derived from Dearomatized Isoprenylated Acylphloroglucinol with Opposite Effects on Cav3.1 Low Voltage-Gated Ca2+ Channel” (J Med Chem, 2020)
pEC50, pIC50: −log10 of the molar value. Active and inactive are the calls of the source.

Key:
Assay type in all cases: cell-based
[1] = target: T-type calcium channel alpha 1G subunit (Mus musculus) (UniProt Q27YN9); test: (§1) Antagonist activity at mouse Cav3.1 expressed in HEK293T cells assessed as inhibition of current amplitude at holding potential of -100 mV by whole cell electrophysiological method
Sequence of T-type calcium channel alpha 1G subunit (Mus musculus) (Q27YN9 as listed by the source): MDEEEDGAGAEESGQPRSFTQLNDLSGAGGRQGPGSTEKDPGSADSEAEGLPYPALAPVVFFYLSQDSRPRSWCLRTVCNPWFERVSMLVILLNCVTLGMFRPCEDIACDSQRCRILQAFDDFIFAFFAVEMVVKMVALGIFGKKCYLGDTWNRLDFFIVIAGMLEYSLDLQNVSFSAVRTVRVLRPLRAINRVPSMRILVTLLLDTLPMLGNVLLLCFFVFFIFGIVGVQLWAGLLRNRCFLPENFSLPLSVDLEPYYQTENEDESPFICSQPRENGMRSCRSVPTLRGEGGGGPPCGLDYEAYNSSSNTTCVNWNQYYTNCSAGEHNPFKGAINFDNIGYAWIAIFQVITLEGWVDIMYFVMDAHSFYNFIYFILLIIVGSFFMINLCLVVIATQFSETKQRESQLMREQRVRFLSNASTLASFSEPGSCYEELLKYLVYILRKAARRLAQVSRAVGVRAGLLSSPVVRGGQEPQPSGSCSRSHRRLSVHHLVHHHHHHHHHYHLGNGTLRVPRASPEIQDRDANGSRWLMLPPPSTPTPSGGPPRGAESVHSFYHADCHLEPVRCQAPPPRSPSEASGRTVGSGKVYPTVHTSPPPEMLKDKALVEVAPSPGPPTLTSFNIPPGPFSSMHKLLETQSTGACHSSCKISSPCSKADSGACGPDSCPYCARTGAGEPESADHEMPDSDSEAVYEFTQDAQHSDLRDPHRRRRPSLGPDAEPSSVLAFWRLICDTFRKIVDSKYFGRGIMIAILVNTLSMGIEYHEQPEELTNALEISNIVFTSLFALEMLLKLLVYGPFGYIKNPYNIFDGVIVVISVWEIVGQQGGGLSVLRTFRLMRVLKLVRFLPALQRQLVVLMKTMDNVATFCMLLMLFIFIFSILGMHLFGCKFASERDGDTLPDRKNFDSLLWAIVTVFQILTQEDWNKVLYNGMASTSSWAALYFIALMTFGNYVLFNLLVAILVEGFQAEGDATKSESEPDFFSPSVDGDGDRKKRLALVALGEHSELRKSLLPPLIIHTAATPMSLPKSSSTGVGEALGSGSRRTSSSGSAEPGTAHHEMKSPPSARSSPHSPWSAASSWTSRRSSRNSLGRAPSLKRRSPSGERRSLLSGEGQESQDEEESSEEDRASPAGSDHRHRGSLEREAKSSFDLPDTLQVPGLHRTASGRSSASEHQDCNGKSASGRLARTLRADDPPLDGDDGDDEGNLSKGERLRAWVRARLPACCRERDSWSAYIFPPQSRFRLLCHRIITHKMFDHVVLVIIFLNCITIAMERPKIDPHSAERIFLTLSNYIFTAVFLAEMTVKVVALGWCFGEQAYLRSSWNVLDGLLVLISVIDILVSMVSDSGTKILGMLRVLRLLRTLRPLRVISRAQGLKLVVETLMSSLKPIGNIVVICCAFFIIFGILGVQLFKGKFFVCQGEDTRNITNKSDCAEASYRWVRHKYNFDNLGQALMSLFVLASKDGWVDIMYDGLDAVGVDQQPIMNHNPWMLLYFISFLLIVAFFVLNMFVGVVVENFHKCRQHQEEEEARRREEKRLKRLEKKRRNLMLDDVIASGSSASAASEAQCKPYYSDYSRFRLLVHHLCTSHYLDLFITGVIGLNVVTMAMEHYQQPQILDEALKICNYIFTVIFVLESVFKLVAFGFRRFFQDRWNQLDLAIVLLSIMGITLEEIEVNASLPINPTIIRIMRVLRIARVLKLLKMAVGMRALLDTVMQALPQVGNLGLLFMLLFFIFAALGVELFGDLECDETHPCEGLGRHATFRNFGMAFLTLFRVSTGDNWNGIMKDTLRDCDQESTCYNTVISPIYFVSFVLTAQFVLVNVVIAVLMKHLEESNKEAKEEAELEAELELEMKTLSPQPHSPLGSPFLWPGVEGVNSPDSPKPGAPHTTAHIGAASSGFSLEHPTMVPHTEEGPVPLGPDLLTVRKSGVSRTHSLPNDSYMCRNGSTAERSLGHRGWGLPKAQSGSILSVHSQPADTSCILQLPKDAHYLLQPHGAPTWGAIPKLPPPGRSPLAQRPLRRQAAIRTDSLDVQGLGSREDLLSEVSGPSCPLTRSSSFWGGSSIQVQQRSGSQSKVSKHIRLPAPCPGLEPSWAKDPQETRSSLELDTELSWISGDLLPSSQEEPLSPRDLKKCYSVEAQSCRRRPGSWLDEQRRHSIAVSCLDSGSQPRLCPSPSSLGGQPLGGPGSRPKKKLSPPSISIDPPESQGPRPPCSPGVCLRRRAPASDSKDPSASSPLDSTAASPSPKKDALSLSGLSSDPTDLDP

[2] = target: T1, T-type calcium channel alpha 1G subunit (Mus musculus, UniProt Q27YN9); test: as §1
T1 sequence (Q27YN9 whole entry): as the sequence (Q27YN9 as listed by the source) above

[3] = target: T-type calcium channel alpha 1G subunit (Mus musculus) (UniProt Q27YN9); test: Antagonist activity at mouse Cav3.1 expressed in HEK293T cells assessed as inhibition of current amplitude at 10 uM at holding potential of -100 mV incubated prior to compound washout by whole cell electrophysiological method
[4] = target: T-type calcium channel alpha 1G subunit (Mus musculus) (UniProt Q27YN9); test: Antagonist activity at mouse Cav3.1 expressed in HEK293T cells assessed as inhibition of current amplitude at 2 uM at holding potential of -100 mV in presence of hypatone-A by whole cell electrophysiological method
[5] = target: Voltage-dependent T-type calcium channel subunit alpha-1G (Homo sapiens, UniProt O43497); test: Agonist activity at Cav3.1 (unknown origin) expressed in HEK293T cells assessed as increase in current amplitude at holding potential of -100 mV by whole cell patch-clamp electrophysiological method
Sequence of Voltage-dependent T-type calcium channel subunit alpha-1G (O43497 whole entry): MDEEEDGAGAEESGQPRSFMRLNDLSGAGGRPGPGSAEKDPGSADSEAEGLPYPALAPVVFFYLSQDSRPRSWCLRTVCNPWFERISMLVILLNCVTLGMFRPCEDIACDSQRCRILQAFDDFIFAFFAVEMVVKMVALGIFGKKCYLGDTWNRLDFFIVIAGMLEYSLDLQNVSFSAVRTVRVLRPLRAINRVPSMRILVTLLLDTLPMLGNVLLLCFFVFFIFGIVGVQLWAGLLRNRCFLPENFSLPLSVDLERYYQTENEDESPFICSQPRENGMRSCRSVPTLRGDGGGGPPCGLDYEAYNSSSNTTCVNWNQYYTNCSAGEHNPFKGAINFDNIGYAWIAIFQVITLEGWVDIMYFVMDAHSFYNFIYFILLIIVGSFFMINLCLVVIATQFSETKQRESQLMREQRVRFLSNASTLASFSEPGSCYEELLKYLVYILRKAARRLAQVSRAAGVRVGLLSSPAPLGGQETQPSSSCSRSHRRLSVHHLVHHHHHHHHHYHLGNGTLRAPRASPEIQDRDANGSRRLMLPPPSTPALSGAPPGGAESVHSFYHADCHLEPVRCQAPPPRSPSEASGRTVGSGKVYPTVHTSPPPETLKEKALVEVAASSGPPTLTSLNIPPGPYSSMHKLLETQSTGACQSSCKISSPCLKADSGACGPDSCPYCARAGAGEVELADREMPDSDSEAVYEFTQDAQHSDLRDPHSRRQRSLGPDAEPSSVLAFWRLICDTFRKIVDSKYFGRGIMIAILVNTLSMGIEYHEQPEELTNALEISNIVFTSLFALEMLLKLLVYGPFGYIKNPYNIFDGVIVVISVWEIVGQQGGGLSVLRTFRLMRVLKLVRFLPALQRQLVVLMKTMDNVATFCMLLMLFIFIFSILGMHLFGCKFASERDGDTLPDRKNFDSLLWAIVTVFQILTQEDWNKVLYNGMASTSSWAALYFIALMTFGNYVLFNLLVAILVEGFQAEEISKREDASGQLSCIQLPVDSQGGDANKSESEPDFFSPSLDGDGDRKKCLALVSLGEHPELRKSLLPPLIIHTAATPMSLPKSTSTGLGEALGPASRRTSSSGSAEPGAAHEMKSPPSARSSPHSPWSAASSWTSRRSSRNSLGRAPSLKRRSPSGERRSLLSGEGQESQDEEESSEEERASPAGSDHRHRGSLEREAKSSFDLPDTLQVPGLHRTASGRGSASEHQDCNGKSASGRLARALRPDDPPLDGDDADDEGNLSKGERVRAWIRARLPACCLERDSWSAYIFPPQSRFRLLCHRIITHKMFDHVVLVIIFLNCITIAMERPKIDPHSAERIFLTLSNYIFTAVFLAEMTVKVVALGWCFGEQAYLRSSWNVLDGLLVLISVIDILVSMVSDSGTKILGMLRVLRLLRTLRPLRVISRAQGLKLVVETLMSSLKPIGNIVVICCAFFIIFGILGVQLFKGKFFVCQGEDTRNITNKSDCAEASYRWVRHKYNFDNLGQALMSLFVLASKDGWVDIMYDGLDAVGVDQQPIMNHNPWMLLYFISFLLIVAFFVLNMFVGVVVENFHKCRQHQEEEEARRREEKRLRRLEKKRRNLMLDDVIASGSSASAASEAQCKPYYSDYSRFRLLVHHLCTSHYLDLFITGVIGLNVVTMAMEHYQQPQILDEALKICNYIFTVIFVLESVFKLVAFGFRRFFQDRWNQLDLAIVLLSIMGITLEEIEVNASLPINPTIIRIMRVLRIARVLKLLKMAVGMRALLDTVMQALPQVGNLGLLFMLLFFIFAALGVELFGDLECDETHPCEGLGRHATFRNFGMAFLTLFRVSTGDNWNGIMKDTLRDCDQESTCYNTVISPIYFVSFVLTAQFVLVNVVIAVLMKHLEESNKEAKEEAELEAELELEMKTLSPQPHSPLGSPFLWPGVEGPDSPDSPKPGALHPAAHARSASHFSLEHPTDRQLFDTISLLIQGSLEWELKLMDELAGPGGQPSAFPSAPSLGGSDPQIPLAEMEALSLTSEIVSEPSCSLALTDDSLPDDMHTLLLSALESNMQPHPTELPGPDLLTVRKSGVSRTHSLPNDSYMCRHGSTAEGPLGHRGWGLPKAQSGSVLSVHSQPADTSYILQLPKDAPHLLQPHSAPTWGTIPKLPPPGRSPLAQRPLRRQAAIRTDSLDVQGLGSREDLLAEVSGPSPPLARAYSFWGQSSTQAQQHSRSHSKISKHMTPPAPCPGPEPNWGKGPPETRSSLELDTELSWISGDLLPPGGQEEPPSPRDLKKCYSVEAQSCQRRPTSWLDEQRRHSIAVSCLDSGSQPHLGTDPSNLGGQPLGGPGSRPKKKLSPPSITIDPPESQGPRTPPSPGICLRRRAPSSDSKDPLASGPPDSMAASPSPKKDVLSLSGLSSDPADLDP

[6] = species: Mus musculus; test: Antagonist activity at mouse Cav3.1 R1715H mutant expressed in HEK293T cells assessed as change in time constant of inactivation at 10 uM at holding potential of -100 mV by whole cell electrophysiological method
[7] = target: T-type calcium channel alpha 1G subunit (Mus musculus) (UniProt Q27YN9); test: Agonist activity at mouse Cav3.1 expressed in HEK293T cells assessed as increase in current amplitude at 5 uM at holding potential of -100 mV in presence of hypatone-B by whole cell electrophysiological method
[8] = target: T-type calcium channel alpha 1G subunit (Mus musculus) (UniProt Q27YN9); test: Agonist activity at mouse Cav3.1 expressed in HEK293T cells assessed as change in slope factor at 5 uM at holding potential of -100 mV by whole cell electrophysiological method
[9] = Agonist activity at mouse Cav3.1 R1715H mutant expressed in HEK293T cells assessed as increase in current amplitude at holding potential of -100 mV by whole cell electrophysiological method; details: HEK-293T
[10] = target: T-type calcium channel alpha 1G subunit (Mus musculus) (UniProt Q27YN9); test: Agonist activity at mouse Cav3.1 expressed in HEK293T cells assessed as increase in current amplitude at 3 to 30 uM at holding potential of -100 mV incubated prior to compound washout by whole cell electrophysiological method
[11] = target: T-type calcium channel alpha 1G subunit (Mus musculus) (UniProt Q27YN9); test: Agonist activity at mouse Cav3.1 expressed in HEK293T cells assessed as half-maximal activation potential at 5 uM at holding potential of -100 mV by whole cell electrophysiological method (reference value: -44 +/- 2.8 mV)
[12] = species: Mus musculus; test: Agonist activity at mouse Cav3.1 R1715H mutant expressed in HEK293T cells assessed as change in half-maximal activation potential at 10 uM at holding potential of -100 mV by whole cell electrophysiological method (reference value: -38 +/- 4.3 mV)
[13] = target: T-type calcium channel alpha 1G subunit (Mus musculus) (UniProt Q27YN9); test: Agonist activity at mouse Cav3.1 expressed in HEK293T cells assessed as increase in current amplitude at 300 uM at holding potential of -100 mV measured up to 150 millisecs in presence of LVGCC blocker Ni2+ by whole cell electrophysiological method
[14] = target: T-type calcium channel alpha 1G subunit (Mus musculus) (UniProt Q27YN9); test: Agonist activity at mouse Cav3.1 expressed in HEK293T cells assessed as change in time constant of activation at 5 uM at holding potential of -100 mV by whole cell electrophysiological method
[15] = species: Mus musculus; test: Agonist activity at mouse Cav3.1 R1715H mutant expressed in HEK293T cells assessed as change in slope factor at 10 uM at holding potential of -100 mV by whole cell electrophysiological method
[16] = species: Mus musculus; test: Antagonist activity at mouse Cav3.1 R1715H mutant expressed in HEK293T cells assessed as depolarization of action potential at 10 uM at holding potential of -100 mV by whole cell electrophysiological method
[17] = target: T-type calcium channel alpha 1G subunit (Mus musculus) (UniProt Q27YN9); test: Agonist activity at mouse Cav3.1 expressed in HEK293T cells assessed as increase in current amplitude at 5 uM at holding potential of -100 mV measured after 12 to 14 secs by whole cell electrophysiological method
[18] = target: T-type calcium channel alpha 1G subunit (Mus musculus) (UniProt Q27YN9); test: Agonist activity at mouse Cav3.1 expressed in HEK293T cells assessed as decrease in half-maximal activation potential at 5 uM at holding potential of -100 mV incubated prior to compound washout by whole cell electrophysiological method
[19] = species: Mus musculus; test: Agonist activity at mouse Cav3.1 R1715H mutant expressed in HEK293T cells assessed as normalized window current at 10 uM at holding potential of -100 mV by whole cell electrophysiological method
[20] = target: T-type calcium channel alpha 1G subunit (Mus musculus) (UniProt Q27YN9); test: Antagonist activity at mouse Cav3.1 expressed in HEK293T cells assessed as half-maximal inactivation potential at 5 uM at holding potential of -100 mV by whole cell electrophysiological method (reference value: -70.8 +/- 3 mV)
[21] = target: T-type calcium channel alpha 1G subunit (Mus musculus) (UniProt Q27YN9); test: Agonist activity at mouse Cav3.1 expressed in HEK293T cells assessed as increase in window current at 5 uM at holding potential of -100 mV by whole cell electrophysiological method
[22] = target: T1, T-type calcium channel alpha 1G subunit; test: Agonist activity at mouse Cav3.1 expressed in HEK293T cells assessed as increase in current amplitude at holding potential of -100 mV by whole cell electrophysiological method
[23] = target: T-type calcium channel alpha 1G subunit (Mus musculus) (UniProt Q27YN9); test: Antagonist activity at mouse Cav3.1 expressed in HEK293T cells assessed as change in slope factor at 5 uM at holding potential of -100 mV by whole cell electrophysiological method
[24] = target: T-type calcium channel alpha 1G subunit (Mus musculus) (UniProt Q27YN9); test: Antagonist activity at mouse Cav3.1 expressed in HEK293T cells assessed as change in time constant of inactivation at 5 uM at holding potential of -100 mV by whole cell electrophysiological method
[25] = species: Mus musculus; test: Agonist activity at mouse Cav3.1 R1715H mutant expressed in HEK293T cells assessed as change in time constant of activation at 10 uM at holding potential of -100 mV by whole cell electrophysiological method
[26] = target: T-type calcium channel alpha 1G subunit (Mus musculus) (UniProt Q27YN9); test: Antagonist activity at mouse Cav3.1 expressed in HEK293T cells assessed as increase in half-maximal activation potential at 5 uM at holding potential of -100 mV incubated prior to compound washout by whole cell electrophysiological method
[27] = species: Mus musculus; test: Agonist activity at mouse Cav3.1 R1715H mutant expressed in HEK293T cells assessed as increase in 200 ms ramp from -100 to -40 mV after 100 ms hyperpolarization of -100 mV evoked peak of low threshold Ca2+ spike at 10 uM at -60 mV holding potential by whole cell electrophysiological method relative to control
[28] = species: Mus musculus; test: Agonist activity at mouse Cav3.1 R1715H mutant expressed in HEK293T cells assessed as shift in voltage dependence of activation at 10 uM at holding potential of -100 mV by whole cell electrophysiological method

C=C(C)[C@H]1CC[C@@](C)(O)[C@@H](C2=C(O)C(CC=C(C)C)(CC=C(C)C)C(=O)C(C(=O)C(C)CC)=C2O)C1 (some centres undefined)
inhibition [1]: Dose-dependent effect | pIC50 [2]: 6.72 | inhibition [3]: Active

C=C(C)[C@H]1CC[C@@](C)(O)[C@@H](C2=C(O)C(CC=C(C)C)(CC=C(C)C)C(=O)C(C(=O)c3ccccc3)=C2O)C1
inhibition [1]: Dose-dependent effect | pIC50 [2]: 5.64 | inhibition [4]: Active | inhibition [3]: Active

CC(C)C1=C/C(=C2\C(=O)C=C3C(C)(C)CCC[C@@]32C)OC1=O
pEC50 [5]: 4.90

C=C(C)[C@H]1CC[C@@](C)(O)[C@@H](C2=C(O)C(CC=C(C)C)(CC=C(C)C)C(=O)C(C(=O)C(C)C)=C2O)C1
inhibition [1]: Dose-dependent effect | pIC50 [2]: 5.46 | inhibition [3]: Active

CC(C)=CCC1(CC=C(C)C)C(=O)C(C(=O)c2ccccc2)=C2O[C@]3(C)CC[C@H]4C[C@@H]3[C@]2(C1=O)C4(C)C
Activity [6]: inactive | Activity [7]: Active | Activity [8]: inactive | pEC50 [9]: 5.02 | Activity [10]: inactive | V1/2 [11]: -47.6 mV | V1/2 [12]: -43.8 mV | Activity [13]: inactive | Activity [14]: inactive | Activity [15]: inactive | Activity [16]: inactive | Activity [17]: Active | Activity [18]: inactive | Activity [19]: Active | V1/2 [20]: -66.5 mV | Activity [21]: Active | pEC50 [22]: 5.42 | Activity [23]: inactive | Activity [24]: inactive | Activity [25]: inactive | Activity [26]: inactive | Activity [27]: 26.7% | Activity [28]: inactive
